These are literature values, as cited in US20130158016A1, “ANESTHETIC ASSOCIATION, ANESTHETIC COMPOSITION, AND […] VETERINARY USE” (Ouro Fino Participacoes e Empreendimentsos S/A, priority 2010, published 2013).

Each structure is given as a SMILES string.

For the data set, the system named is female dogs. The note with it: 2 mg/kg intravenously (slow), prophylactic.

For the molecule `COc1cccc(C2(O)CCCCC2CN(C)C)c1` (stereo not drawn) [tramadol], the analgesia after ovariosalpingohisterectomy entry is listed as “analgesia similar to that produced by morphine”; the “effect on expired concentration of isoflurane” value was “reducing the expired concentration of isoflurane”; the “neuroendocrine response to pain (catecholamine and cortisol)” value is “reducing the peaks of catecholamine and cortisol”.
